Where two headings read alike, the source gives them in different places.

From patent US5246956A, “N-imidazolyl derivatives of substituted alkoxyimino tetrahydronaphthalenes and chromans having antithromboxane A2 activity” (Farmitalia Carlo Erba S.r.l., priority 1991, dated 1993) come the findings set out here.

The subject of one assay is TxB2 synthesis. As to the kind of experiment: TxB2 synthesis inhibition in vitro, in whole blood of normal rats. The assay is classed as cell-based, rat (Sprague Dawley). How it is done:
(§1) The effects of a representative group of compounds of the invention were evaluated, in comparison with known compounds, on TxB2 synthesis inhibition in vitro, in whole blood of normal rates, and on TxA2 antagonism in a binding assay in washed human platelets.
TxB2 synthesis inhibition
Blood was withdrawn from the abdominal aorta of normal Sprague Dawley rats (Charles River Italy) under light ether anaesthesia. The blood was immediately divided in portions of 0.5 ml and distributed in glass tubes each containing a concentration of the test compound, or of the reference compounds.
Samples were then allowed to clot for 1 hour at 37° C., centrifuged at 3000 rpm for 10 min, and serum collected and stored at -20° C. until assayed.

Assay [1] has as its target T1, TXA2 receptor (washed human platelets) (Homo sapiens, UniProt P21731).
T1 construct: endogenous in cells; host or cells: washed human platelets from healthy volunteers
T1 sequence (P21731 1-343): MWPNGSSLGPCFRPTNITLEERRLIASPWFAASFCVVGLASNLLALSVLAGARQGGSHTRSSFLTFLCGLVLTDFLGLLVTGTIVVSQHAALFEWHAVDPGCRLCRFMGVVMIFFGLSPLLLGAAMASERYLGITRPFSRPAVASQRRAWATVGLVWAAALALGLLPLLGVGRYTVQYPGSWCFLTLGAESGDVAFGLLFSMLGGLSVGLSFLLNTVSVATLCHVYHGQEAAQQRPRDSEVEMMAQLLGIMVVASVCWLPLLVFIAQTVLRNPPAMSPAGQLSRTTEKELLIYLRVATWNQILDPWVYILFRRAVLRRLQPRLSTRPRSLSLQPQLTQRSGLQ
Put plainly: Displacement of [^3 H]-SQ 29,548 binding to washed human platelets (TxA2 antagonism). How it is done: as §1
Displacement of [^3 H]--SO 29,548 binding to washed human platelets.
Blood from healthy volunteers of both sexes who had not taken any medication for at least 10 days was collected into one-tenth volume of acid citrate dextrose containing indomethacin (28 μM). Platelet rich plasma (PRP), obtained by centrifugation of the blood at 200 xg for 20 min. was washed twic (1000 xg for 10 min). The platelets are then resuspended in Tyrode-Hepes buffer (pH 7.4) to a final concentration of […] and incubated for 0-60 min at 25° with [^3 H]--SQ 29,548 (5 nM). For displacement experiments various concentrations (10^-9 -10^-4 M) of competing ligands were added and incubated for 30 min at 25° C. […] After the incubation, 4 ml of ice-cold TRIS-HC1 buffer (10 mM, pH 7.4) was added to each tube and the reaction mixture was immediately filtered by suction through a Whatman GF/C glass filter disc which was washed 2 times with ice-cold TRIS-CH1 (4 ml) and counted for radioactivity by a Packard β-counter.
The binding data were analysed by computerized non-linear curve fitting using the Ligand program and expressed as ID50.

The mark [2] stands for this setting: Table 3, rat whole blood, read-out: TxB2 synthesis IC50.
[3] abbreviates: Rattus norvegicus, Table 2, whole blood of normal rats, 1 hour at 37° C., read-out: In vitro effect on TxB2 synthesis in normal rats, IC50 (whole blood).

As for `COc1ccc2c(c1)/C(=N/OCCCCC(=O)O)C(n1ccnc1)C(c1ccc(OC)c(OC)c1)O2` (racemic) [FCE 26603, (+-)-(Z)-5-[[2-(3,4-dimethoxyphenyl)-3-(1H-imidazol-1-yl)-2,3-dihydro-6-methoxy-4H-1-benzopyranylidene]aminoxy]pentanoic acid], the concentration for half-maximal inhibition (IC50) in the assay with TxB2 synthesis (setting [2]) amounted to 200 nM; in assay [1] (Table 3, washed human platelets, read-out: ^3 H-SQ 29548 binding displacement IC50) it was 100 nM. On to `O=C(O)CCCCCO/N=C1/c2ccccc2OC(c2ccccc2)C1n1ccnc1` (racemic) [FCE 27016, (+-)-(Z)-6-[[2-phenyl-3-(1H-imidazol-1-yl)-2,3-dihydro-4H-benzopyranylidene]aminoxy]hexanoic acid], for which the IC50 in assay [1] (Table 1, washed human platelets, 30 min at 25° C., read-out: ^3 H SQ 29548 binding displacement (washed human platelet) IC50) came out at 33 nM. Moreover, the TxA2 antagonism result in assay [1] (platelets, in words) is “patent TxA2 antagonist”. Further, the “affinity for the receptor compared with BM 13505 and BM 13177” value in assay [1] (washed human platelets, in words) was “greater than those of compounds BM 13505 and BM 13177”. With `CC(=O)Oc1ccccc1C(=O)O` [ASA, acetylsalicilic acid], the concentration for half-maximal inhibition (IC50) with TxB2 synthesis (Rattus norvegicus, 1 h, read-out: In vitro effect on TxB2 synthesis in normal rats, IC50 (whole blood)) was found to be 31000 nM. Turning to `O=C(O)COc1ccc(CCNS(=O)(=O)c2ccccc2)cc1` [BM 13177], in the assay on TxB2 synthesis (Table 3, rat whole blood), the “TxB2 synthesis IC50” value was “inactive”. On to `O=C(O)Cc1ccc(CCNS(=O)(=O)c2ccc(Cl)cc2)cc1` [BM 13505], for which, in the assay on TxB2 synthesis (Table 3, rat whole blood), the “TxB2 synthesis IC50” value is “inactive”. As to `O=C(O)c1ccc(OCCn2ccnc2)cc1` [Dazoxiben], the half-maximal inhibitory concentration (IC50) in the assay with TxB2 synthesis (setting [3]) and in the assay on TxB2 synthesis (setting [2]) was 1200 nM each time. Moreover, the “^3 H-SQ 29548 binding displacement IC50” value in assay [1] (Table 3, washed human platelets) is “inactive”. With `CC1Oc2ccccc2/C(=N/OCCCCC(=O)O)C1n1ccnc1` (stereo not shown) [FCE 26365, 5-[[2-methyl-3-(1H-imidazol-1-yl)-2,3-dihydro-4H-1-benzopyranylidene]aminoxy]pentanoic acid], the IC50 in the assay on TxB2 synthesis (setting [3]) turned out to be 27 nM. The “inhibition of platelet TxA2 synthase” value with TxB2 synthesis (in words) is listed as “potent inhibitor of platelet TxA2 synthase”.

Usually IC50 stands for the midpoint of a concentration-inhibition curve.
